The results in this text go back to ChEMBL document CHEMBL5209571, “Membrane potential based assay for SLC13A3 using HEK-293 SLC13A3 OE cells” (2022).

What is called EC50 is the concentration at which the effect is half-maximal. A high value points to a less potent agent.

The test concerns the target T1, Na(+)/dicarboxylate cotransporter 3 (Homo sapiens, UniProt Q8WWT9).
T1 sequence (Q8WWT9 whole entry): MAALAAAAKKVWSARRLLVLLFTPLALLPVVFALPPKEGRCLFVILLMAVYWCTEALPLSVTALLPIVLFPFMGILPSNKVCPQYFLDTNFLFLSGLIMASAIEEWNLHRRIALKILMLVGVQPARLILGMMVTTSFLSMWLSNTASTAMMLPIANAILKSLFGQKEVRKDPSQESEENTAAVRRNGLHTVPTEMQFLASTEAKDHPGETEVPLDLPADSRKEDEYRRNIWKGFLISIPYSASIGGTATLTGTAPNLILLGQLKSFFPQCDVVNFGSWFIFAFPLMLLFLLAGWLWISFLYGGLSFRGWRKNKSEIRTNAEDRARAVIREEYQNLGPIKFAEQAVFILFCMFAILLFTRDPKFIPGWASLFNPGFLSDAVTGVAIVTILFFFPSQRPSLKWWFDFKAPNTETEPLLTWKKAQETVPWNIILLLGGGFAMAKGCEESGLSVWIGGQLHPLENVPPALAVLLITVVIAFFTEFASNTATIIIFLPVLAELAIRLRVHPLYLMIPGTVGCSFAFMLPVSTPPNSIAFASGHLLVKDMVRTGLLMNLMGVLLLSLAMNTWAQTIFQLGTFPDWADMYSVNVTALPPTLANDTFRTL
Kind of test: Substrate uptake by the Na(+)/Dicarboxylate Cotransporter 3 (NADC3, SLC13A3) as assessed by the fluorescent FLIPR membrane potential dye in HEK-293 JumpIN-SLC13A3 cells (PubChem AID: 1794820). In kind it is functional, cell-based, HEK293.

For `O=C(O)CCC(=O)O` [SUCCINIC ACID], the EC50 stood at 107 µM. In turn, `O=C(O)CCC(=O)C(=O)O` [ALPHA-KETOGLUTARIC ACID] gave an EC50 of 54 µM.
